Reference: patent US20200385331A1, “ALTERNATIVE KETONE ESTERS AND PRODUCTION PROCESSES THEREOF” (KetoneAid Inc., priority 2018, published 2020)

Tests used:
[1] = exposure to conditions mimicking the pH of the gut (beta hydroxy dehydration at low pH); type: physicochemical; details: for dehydration of exposed beta hydroxy groups relative to the salts or free acid of β-hydroxybutyrate: low pH conditions
Text: The present invention generally relates to means of protecting or stabilizing the beta hydroxy group in β-hydroxybutyrate in order to prevent beta hydroxy dehydration in the presence of strong acid, such as found in the stomach. That reaction is a type of gastric degradation which yield compounds with no known metabolic therapy. […] Stabilizing the beta hydroxy group is possible by replacing the carboxylic acid functional group with an ester functional group, which prevents resonance between the two oxygen atoms by hydrogen and considerably stabilizes the beta hydroxy group reducing dehydration by as much as 40% compared to salts and the free acid of β-hydroxybutyrate. Protecting the beta hydroxy group is defined by replacing the beta hydroxy group with a second molecule of β-hydroxybutyrate forming an ester bond at the previous beta hydroxy functional group and yielding a dimer ester (DE) of β-hydroxybutyrate. Further described herein are similar therapeutic agents, compositions, and production processes thereof. […] The Dimer Esters protecting the beta hydroxy group are far less susceptible than any other identified compound to dehydration because only one beta hydroxy group is exposed of the two effective molecules of β-hydroxybutyrate This is disclosed in the prior art providing room for more advantageous compounds and formulations thereof as described herein. A third experiment was carried out exposing the salts and KME to conditions mimicking the pH of the gut.

[2] = healthy resting adults; cited from earlier work

| SMILES | dehydration of exposed beta hydroxy groups relative to the salts or free acid of β-hydroxybutyrate [1] | dehydration on exposure to conditions mimicking the pH of the gut ([1]; third experiment, yields undesirable products) | increase of myocardial output [2] |
| --- | --- | --- | --- |
| C[C@@H](O)CCOC(=O)C[C@@H](C)O [KME, (3R)-hydroxybutyl (3R)-hydroxybutyrate] | dehydrate to a far lesser extent | Rapid dehydration was observed | – |
| CC(CCO)OC(=O)C[C@@H](C)O (stereo partly shown) [SKE] | dehydrate to a far lesser extent | – | – |
| CC(O)CC(=O)O (stereo not drawn) [beta hydroxybutyrate] | – | – | 50% |
